Assay results as given in paper PMC6768028, “Synthesis, SAR and in vitro therapeutic potentials of thiazolidine-2,4-diones” (Chemistry Central Journal, 2018).
≈ marks a conversion by molar mass, not a printed value. Like-named read-outs stand apart in the source and are kept apart here.

Experiments:
Bacillus subtilis = test: Antimicrobial activity, tube dilution method (MIC); type: cell-based; details: 24 h
Method: (§1) The in vitro antimicrobial activity of synthesized compounds was done by tube dilution method against Gram-positive bacteria: Staphylococcus aureus, Bacillus subtilis, Gram-negative bacteria: Escherichia coli, Klebsiella pneumonia, Salmonella typhi and fungal: Candida albicans and Aspergillus niger strains using cefadroxil and fluconazole as standard. Dilutions of test and standard compounds were prepared in double strength nutrient broth for bacterial strains and Sabouraud dextrose broth for fungal strains.

Escherichia coli = test: Antimicrobial activity, tube dilution method (MIC); type: cell-based; details: 24 h
Method: as §1

Klebsiella pneumonia = test: Antimicrobial activity, tube dilution method (MIC); type: cell-based; details: Klebsiella pneumoniae, 24 h
Method: as §1

Salmonella typhi = test: Antimicrobial activity, tube dilution method (MIC); type: cell-based; details: Salmonella enterica, TYPHI, 24 h, read-out: Minimum inhibitory concentration, S. typhi
Method: as §1

Staphylococcus aureus = test: Antimicrobial activity, tube dilution method (MIC); type: cell-based; details: 24 h, read-out: Minimum inhibitory concentration, S. aureus, tube dilution, 37 ± 1 °C, 24 h
Method: as §1

Aspergillus niger = test: Antifungal activity, tube dilution method (MIC); type: cell-based; details: 168 h
Method: as §1

Candida albicans = test: Antifungal activity, tube dilution method (MIC); type: cell-based; details: 48 h
Method: as §1

[1] = system: α-amylase enzyme (diastase); test: Antidiabetic activity: α-amylase inhibitory activity using diastase, colorimetric method; type: biochemical; details: for IC50 (antidiabetic activity, α-amylase): calculated via graph of % inhibition
Method: All the synthesized compounds were evaluated against α-amylase inhibitory activity by using diastase based on colorimetric method. 0.25 g of soluble potato starch was dissolved in 50 ml of 20 mM phosphate buffer by heating for 15 min. 1 mg diastase (amylase enzyme) was mixed in 100 ml of 20 mM phosphate buffer (pH 6.9) to obtain the enzyme solution. Different concentrations of all the synthesized derivatives were prepared by dissolving them in DMSO. […] 1 ml of enzyme solution was mixed with 1 ml of each synthesized derivatives and incubated for 10 min at 25 °C. Then 1 ml of this mixture was mixed with 1 ml of soluble potato starch solution in a tube and incubated for 10 min at 25 °C. Then tubes were closed after adding 1 ml of color reagent and placed into water bath for 15 min at 85 °C. The reaction mixture was removed from water bath after 15 min. After cooling, the reaction mixture was diluted with 9 ml of distilled water and the absorbance was taken at 540 nm in UV spectrophotometer. Blank solution was prepared by replacing the enzyme solution with buffer solution and absorbance was taken. Measurement of control was performed in identical manner by replacing the synthesized derivatives in 1 ml of DMSO.
Percentage inhibition of α-amylase enzyme was calculated by using following formula:1 %Inhibition=ABlank-ASample/ABlank×100

[2] = Antioxidant activity: free radical scavenging method by DPPH assay; details: for % inhibition (DPPH), 25 μg/ml / % inhibition (DPPH), 50 μg/ml / % inhibition (DPPH), 75 μg/ml / % inhibition (DPPH), 100 μg/ml: 30 min, 517 nm; for IC50 (antioxidant activity, DPPH): calculated via graph of % inhibition
Method: The antioxidant activity of the newly synthesized compounds were evaluated spectrophotometrically using free radical scavenging method by DPPH (2,2-diphenyl-1-picrylhydrazyl) assay. The DPPH is a stable free radical with maximal absorption at 517 nm and is reduced to a corresponding hydrazine when it reacting with hydrogen donors. […] DPPH solution (3 μg/ml) was prepared in methanol and DPPH (in 1:1) solution was used for blank reference. Four dilutions of different concentrations (25, 50, 75 and 100 μg/ml) of each synthesized compound and standard (ascorbic acid) were prepared in the methanol and 1 ml of each concentration was added to 1 ml of DPPH solution. The solution mixture was shaken vigorously and kept in dark place for 30 min at room temperature and absorbance was measured by UV at 517 nm. Percentage inhibition of Free radical DPPH was calculated as follows:1 %Inhibition=ABlank-ASample/ABlank×100 where, ABlank: absorbance of the blank reaction, ASample: absorbance of the test compound.

[3] = read-out: Minimum inhibitory concentration, E. coli, tube dilution, 37 ± 1 °C, 24 h
[4] = tube dilution, 37 ± 1 °C, read-out: Minimum inhibitory concentration, K. pneumonia
[5] = read-out: Minimum inhibitory concentration, B. subtilis, tube dilution, 37 ± 1 °C, 24 h
[6] = read-out: Minimum inhibitory concentration, K. pneumonia, tube dilution, 37 ± 1 °C, 24 h
[7] = read-out: Minimum inhibitory concentration, A. niger, tube dilution, 25 ± 1 °C, 7 days
[8] = read-out: Minimum inhibitory concentration, C. albicans, tube dilution, 37 ± 1 °C, 48 h

Compound	MIC (Escherichia coli; [3])	MIC (Salmonella typhi)	MIC (Staphylococcus aureus)	MIC (Bacillus subtilis; [5])	MIC (Klebsiella pneumonia; [6])	MIC (Aspergillus niger; [7])	MIC (Candida albicans; [8])	% inhibition (α-amylase), 25 μg/ml [1]	% inhibition (α-amylase), 50 μg/ml [1]	% inhibition (α-amylase), 75 μg/ml [1]	% inhibition (α-amylase), 100 μg/ml [1]	IC50 (antidiabetic activity, α-amylase) [1]	% inhibition (DPPH), 25 μg/ml [2]	% inhibition (DPPH), 50 μg/ml [2]	% inhibition (DPPH), 75 μg/ml [2]	% inhibition (DPPH), 100 μg/ml [2]	IC50 (antioxidant activity, DPPH) [2]	other results
CC1=C(C(=O)O)N2C(=O)[C@@H](NC(=O)[C@H](N)c3ccc(O)cc3)[C@H]2SC1 [Cefadroxil, cefadroxil, reference compound]	1.71 mM (≈ 621 µg/mL)	1.71 mM (≈ 621 µg/mL)	1.71 mM (≈ 621 µg/mL)	–	–	–	–	–	–	–	–	–	–	–	–	–	–	MIC (Bacillus subtilis; tube dilution, 37 ± 1 °C, read-out: Minimum inhibitory concentration, B. subtilis): 3.4 mM (≈ 1240 µg/mL); MIC (Klebsiella pneumonia; [4]): 3.4 mM (≈ 1240 µg/mL)
O=C1NC(=O)C(=Cc2ccccc2[N+](=O)[O-])S1 [Compound 4, 5-(2-Nitrobenzylidene)thiazolidine-2,4-dione]	–	4.99 mM (≈ 1250 µg/mL)	4.99 mM (≈ 1250 µg/mL)	9.9 mM (≈ 2480 µg/mL)	9.9 mM (≈ 2480 µg/mL)	4.99 mM (≈ 1250 µg/mL)	4.99 mM (≈ 1250 µg/mL)	31.26%	40.65%	63.93%	92.61%	43.63 µg/mL (≈ 174 µM)	29.45%	45.75%	79.74%	83.10%	36.17 µg/mL (≈ 145 µM)	–
O=C1NC(=O)C(=Cc2ccc(O)cc2)S1 [Compound 5, 5-(4-Hydroxybenzylidene)thiazolidine-2,4-dione]	–	5.65 mM (≈ 1250 µg/mL)	5.65 mM (≈ 1250 µg/mL)	5.65 mM (≈ 1250 µg/mL)	–	5.65 mM (≈ 1250 µg/mL)	5.65 mM (≈ 1250 µg/mL)	18.26%	47.61%	49.24%	96.72%	56.64 µg/mL (≈ 256 µM)	35.79%	39.78%	62.02%	85.47%	31.10 µg/mL (≈ 141 µM)	MIC (Escherichia coli; tube dilution, 37 ± 1 °C, read-out: Minimum inhibitory concentration, E. coli): 11.3 mM (≈ 2500 µg/mL); MIC (Klebsiella pneumonia; [4]): 11.3 mM (≈ 2500 µg/mL)
O=C1NC(=O)C(=Cc2ccc(Cl)cc2Cl)S1 [Compound 3, 5-(2,4-Dichlorobenzylidene)thiazolidine-2,4-dione]	9.12 mM (≈ 2500 µg/mL)	4.5 mM (≈ 1230 µg/mL)	4.5 mM (≈ 1230 µg/mL)	4.5 mM (≈ 1230 µg/mL)	9.12 mM (≈ 2500 µg/mL)	4.5 mM (≈ 1230 µg/mL)	4.5 mM (≈ 1230 µg/mL)	29.45%	47.98%	60.83%	95.79%	43.45 µg/mL (≈ 159 µM)	35.89%	42.67%	70.25%	85.44%	29.04 µg/mL (≈ 106 µM)	–
CCOc1cc(C=C2SC(=O)NC2=O)ccc1O [Compound 11, 5-(4-Hydroxy-3-ethoxybenzylidene)thiazolidine-2,4-dione]	4.7 mM (≈ 1250 µg/mL)	4.7 mM (≈ 1250 µg/mL)	4.7 mM (≈ 1250 µg/mL)	9.4 mM (≈ 2490 µg/mL)	4.7 mM (≈ 1250 µg/mL)	4.7 mM (≈ 1250 µg/mL)	4.7 mM (≈ 1250 µg/mL)	18.49%	47.87%	59.74%	89.71%	52.69 µg/mL (≈ 199 µM)	18.64%	25.71%	72.78%	93.59%	64.03 µg/mL (≈ 241 µM)	–
O=C1NC(=O)C(=C/C=C/c2ccccc2)S1 [Compound 20, 5-((E)-3-Phenylallylidene)thiazolidine-2,4-dione]	5.4 mM (≈ 1250 µg/mL)	5.4 mM (≈ 1250 µg/mL)	5.4 mM (≈ 1250 µg/mL)	5.4 mM (≈ 1250 µg/mL)	10.8 mM (≈ 2500 µg/mL)	5.4 mM (≈ 1250 µg/mL)	5.4 mM (≈ 1250 µg/mL)	34.73%	45.98%	68.34%	88.45%	31.62 µg/mL (≈ 137 µM)	25.64%	46.93%	69.55%	87.97%	43.89 µg/mL (≈ 190 µM)	–
COc1ccc(C=C2SC(=O)NC2=O)cc1 [Compound 12, 5-(4-methoxybenzylidene)thiazolidine-2,4-dione]	5.31 mM (≈ 1250 µg/mL)	5.31 mM (≈ 1250 µg/mL)	10.6 mM (≈ 2490 µg/mL)	10.6 mM (≈ 2490 µg/mL)	10.6 mM (≈ 2490 µg/mL)	5.31 mM (≈ 1250 µg/mL)	5.31 mM (≈ 1250 µg/mL)	27.77%	53.23%	62.27%	79.43%	27.63 µg/mL (≈ 117 µM)	20.67%	42.75%	77.84%	90.50%	53.27 µg/mL (≈ 226 µM)	–
OC(Cn1cncn1)(Cn1cncn1)c1ccc(F)cc1F [Fluconazole, fluconazole, reference compound]	–	–	–	–	–	–	–	–	–	–	–	–	–	–	–	–	–	MIC (Aspergillus niger; tube dilution, 25 ± 1 °C, 7 days, read-out: Minimum inhibitory concentration, A. niger): 4.08 mM (≈ 1250 µg/mL); MIC (Candida albicans; tube dilution, 37 ± 1 °C, read-out: Minimum inhibitory concentration, C. albicans): 4.08 mM (≈ 1250 µg/mL)
C[C@H]1O[C@H](O[C@H]2[C@H](O)[C@@H](O)[C@@H](O[C@H]3[C@H](O)[C@@H](O)C(O)O[C@@H]3CO)O[C@@H]2CO)[C@H](O)[C@@H](O)[C@@H]1N[C@H]1C=C(CO)[C@@H](O)[C@H](O)[C@H]1O (stereo partly drawn) [Acarabose, Acarbose, reference compound]	–	–	–	–	–	–	–	37.35%	53.45%	73.25%	88.57%	–	–	–	–	–	–	–
O=C1O[C@H]([C@@H](O)CO)C(O)=C1O [Ascorbic acid, ascorbic acid, reference compound]	–	–	–	–	–	–	–	–	–	–	–	–	38.99%	55.78%	72.51%	93.15%	21.64 µg/mL (≈ 123 µM)	–
